From a melting point compilation (Tetko et al.; mined from patent text by program, amines drawn as free bases though some values may be those of a salt)

melting point [°C]	Structure (SMILES)
188	CCOC(=O)c1ncc2[nH]c3cccc(OCc4cccc(F)c4)c3c2c1COC
136 to 139	CCOC(=O)CC(=O)c1cn(C(c2ccccc2)(c2ccccc2)c2ccccc2)cn1
116	O=c1ccoc(C(O)c2ccccc2F)c1OCc1ccccc1 (stereo not drawn)
155 to 156	Cc1cc2c(c(-c3cc(Cl)ccc3Cl)c1)OC(CN)C2 (stereo not drawn)
84 to 85	CO[C@@H]1[C@H](O)[C@@H](CO)O[C@H]1n1cnc2c(N[C@H](C)Cc3ccc(Cl)s3)ncnc21
120	O=C(CC1(S(=O)c2ccc(Oc3ccc(F)cc3)cc2)CCOCC1)NO (stereo not drawn)
121 to 123	CCCCc1ccc(N2CCN(C(=O)Nc3nc(C)c(C)nc3OC)CC2)cc1
152 to 153	COc1ccc(S(=O)(=O)Nc2ccc(N(C)C)nc2Nc2ccccc2)cc1
129 to 131	CCNc1nc(C)c(-c2ccncc2)s1
52 to 53	COCOc1ccc(C=O)c(O)c1
69.4	CCCCNC(=O)c1ccc(S(=O)(=O)NCCCC)o1
155 to 156	CC(C)n1cc(-c2ccc(Oc3ccccc3)cc2)c2c(N)ncnc21
218	CC(=O)Nc1ccc(NC(=O)CCl)c(O)c1
78.6 to 79.5	O=C(O)CCCCCNC(=O)Cc1ccsc1
117 to 118	C[C@@H](n1ccn(-c2ccc(OC(F)(F)C(F)F)cc2)c1=O)[C@@]1(c2ccc(F)cc2F)CO1
209 to 210	CC1(c2nn(-c3c(Cl)cc(C(F)(F)F)cc3Cl)c(N)c2C#N)CC1(Cl)Cl (stereo not drawn)
183 to 186	Cc1ccc(-c2ccc(C(=O)CCC(=O)O)cc2)cc1
102 to 104	CCNC(=O)c1ccc(N2CCN(Cc3cc4c(c(OC(F)F)c3)OC(C)C(=O)N4)CC2)c(Cl)c1 (stereo not drawn)
78 to 80	C=CCOc1ccc2ccc(O)cc2c1
189 to 190	Nc1cc(N2C(=O)COc3ccccc32)ccn1

melting point [°C]	Structure (SMILES)
149 to 151	COc1ccc(C[C@@H]2COc3ccc(OCc4nc5cc(F)ccc5s4)cc3[C@@H]2O)cc1C(=O)O (relative stereo)
103 to 105	COc1cc(C(C)=O)ccc1OCCCN1CCC(c2noc3ccc(F)cc23)CC1
132 to 134	CC(=NO)C(C)(C)NN(C)CCNC(C)(C)C(Cn1ccnc1[N+](=O)[O-])=NO
146 to 147	CN1CCN(C)c2c(cccc2[N+](=O)[O-])C1=O
95 to 100	O=CCOc1ccc(CCC(=O)O)cc1
91.5 to 92	CCOC(=O)c1cccc(-c2ccc(C#N)cc2)c1
131	COc1ccccc1N1CCN(CC(O)COc2cccc(C(=O)C=CN(C)C)c2)CC1 (stereo not drawn)
84 to 86	C=CCc1c(O)c(C(C)=O)cc(C(C)=O)c1O
276 to 278	Cc1nc2ccc(Cl)cc2c(=O)n1C1CCC(=O)NC1=O (stereo not drawn)
197 to 199	Cc1ccc(N2Cc3ccccc3P2(=O)c2ccccc2)cc1 (stereo not drawn)
250	Cc1nc2nc(/C=C3/C(=O)N4C(C(=O)O)=CS[C@H]34)nn2c2c1CCCC2
173 to 175	O=C(NCc1ccccc1)c1ccnc(-n2cnn(Cc3ccc(F)cc3)c2=O)c1
178 to 186	Oc1ccc2c(c1)CCCC(c1ccccc1)=C2c1ccc(OCCCCCSCc2ccccc2)cc1
206 to 210	CC(=O)Nc1ccc(Cl)c2c1C(=O)C(NC(C)=O)CN2C(C)=O (stereo not drawn)
116 to 119	C=CCOc1ccccc1-c1nc2c(CCC)nn(C)c2c(=O)[nH]1
118	COc1ccc(C(CSc2ccccc2N)C(=O)O)cc1 (stereo not drawn)
104	CCCC(c1ccc(C(=O)OC)cc1OCc1ccc(Cl)cc1Cl)n1ccnc1 (stereo not drawn)
112 to 116	COCCOc1cccc(-c2ccnc3c(C(=O)c4cccs4)cnn23)c1
136	CC(Oc1ccc(N(C)c2cc3ccc(Cl)cc3c(Cl)n2)cc1)C(=O)O (stereo not drawn)
159	Cc1nc(NCC(=O)c2ccccc2)c2cc(C)sc2n1

melting point [°C]	Structure (SMILES)
114 to 116	CCCCOc1cc(CCS(=O)(=O)NC(=O)OCC(C)C)n(Cc2ccc(Cl)cc2Cl)n1
173 to 174	O=c1[nH]c(=O)n(CCCCCN2CCC(OC(c3ccccc3)c3ccccc3)CC2)c2ccccc12
242 to 244	Cc1cccc(N2CCOC2=O)c1COc1cccn2c(C=O)c(C)nc12
87 to 91	O=C(O)CCC#Cc1ccccc1Br
128 to 130	CC(Cn1ncnn1)n1nnc2cc3c(=O)n(CC(C)(C)O)nnc3cc2c1=O (stereo not drawn)
245 to 246	COc1ccccc1C(=O)c1sc(Nc2cccnc2)nc1N
226 to 233	CC(=O)Nc1ccc(SC2SCC(O)C(O)C2O)cc1 (stereo not drawn)
226 to 228	CCCc1c(OCc2ccc(C(=O)O)cc2[N+](=O)[O-])ccc(C(C)=O)c1O
232 to 234	CC(=O)NC1CCN(c2nc(Nc3ccc(F)cc3F)c(C(=O)O)cc2F)C1 (stereo not drawn)
73 to 75	CC(C)C[N+]([O-])=Cc1ccccc1
181 to 184	CCCn1c(=O)n(CC(C)=O)c(=O)c2[nH]c(C34CC5CC(CC3C5)C4)nc21
136	ClCn1nnc2ccccc21
59 to 62	COc1cc(OC)cc(C2=NC(CO)Cc3cc(OC)c(OC)cc32)c1 (stereo not drawn)
> 255	COc1cc2c(O)nc(O)nc2c(OC)c1OC
161	C[C@H](NCc1ccc(OCc2ccccc2F)c(Cc2ccccc2F)c1)C(N)=O
184 to 185	Cc1oc(-c2ccccc2)nc1Cc1cc2cc(CCCC3OC(=O)NC3=O)ccc2o1 (stereo not drawn)
190 to 193	Cc1cc2c(s1)Nc1ccccc1N=C2N1CCN(C)CC1
132 to 134	CC(=O)OCc1ccc(S(=O)(=O)c2ccc(C)nc2Nc2c(C)cc(C)cc2C)cc1
191 to 193	CSC1(Cl)C(=O)Nc2ccc(C(F)(F)F)cc21 (stereo not drawn)
108 to 109	COc1ccc(-c2nc3ncccc3o2)cc1OC1CCCC1

Continued, molecule first:

Structure (SMILES)	melting point [°C]
CC(C(=O)O)c1ccc(-c2ccc(F)cc2F)c(F)c1 (stereo not drawn)	105 to 108
O=C(Nc1ccc(Cl)cn1)c1cc(Cl)ccc1NCC1CCN(C2CCSCC2)CC1	200 to 203
CC(C)[C@H](CC1C(=O)OC(C)(C)OC1=O)NC(=O)OC(C)(C)C	108 to 112
CCOC(=O)c1cccc(-c2nccc(OCCc3ccc(OC)c(OC)c3)n2)c1	101 to 102
COc1ccc(C(N)CN)cc1 (stereo not drawn)	64
CCOC(=O)CCc1c(C)c(NC(=O)CC(C)(C)C)c(C)c2c1OCC2c1ccc(C(C)C)cc1 (stereo not drawn)	150 to 151
CN(C(=O)C1CC1)c1cccc(-c2ccnc3c(C(=O)c4ccccc4)cnn23)c1	168 to 170
CCOc1nc2c(nc1C(=O)N1CCN(C)CC1)c(C)nn2CC	111 to 112
NC(=O)CC[C@H](Nc1ccc(CC(=O)O)cc1)C(=O)O	198 to 200
O=c1ccc2cnc(Nc3ccccc3)nc2n1C1CCCC1	188 to 192
CCOC(=O)c1c(C(F)(F)F)nc(C(F)F)c(C(=O)OC)c1NC(C)C	53 to 55
O=C(CC1C2=C(CCCC2)C(=O)N1c1ccc(Cl)cc1)N1CCCCC1 (stereo not drawn)	120 to 122
Cc1nc(CC(O)Cn2cnc3c2c(=O)n(C)c(=O)n3C)no1 (stereo not drawn)	148 to 150
O=C(O)CC1(CNC(=O)c2ccc(CO[N+](=O)[O-])cc2)CCCCC1	127 to 128
NS(=O)(=O)Oc1cc(C(F)(F)F)cc(C(F)(F)F)c1	118 to 120
C#Cc1c(OC)nc(C)nc1C(F)(F)F	77
O=C(CCl)c1ccc2c(c1)CCO2	85 to 87
O=C(c1ccccc1)c1cc(Cl)ccc1-n1ccnc1	106 to 108
Cc1nn(C)c(-c2ccccc2)c1NC1=NCCN1	232 to 234
CCCCNc1cc(C(=O)O)cc(S(=O)(=O)NCCCC)c1Sc1ccc(N)cc1	198 to 200
ON=C(Cl)c1ccccc1	50 to 51
CCCN(CCC)C(=O)Cc1c(-c2ccccc2)nn2cccnc12	103 to 105

Structure (SMILES)	melting point [°C]
CCC(CC)CC(=N)NC(=S)Nc1ccc(Cl)cc1	116 to 118
COc1cc2c(cc1C(F)(F)F)N(C(=O)Nc1ccc3c(ccn3Cc3ccncc3)c1)CC2	215 to 218
COC(=O)C(=O)c1ccc(OCCOc2ccc3ccccc3c2)cc1	155 to 157
COc1ccccc1C(=O)c1cc([N+](=O)[O-])ccc1SC	119 to 122
CCCOc1nc(N)c2ncn(C3CCCCO3)c2n1 (stereo not drawn)	138 to 140
O=C1OC(=O)c2c3ccccc3c(Cl)c3cccc1c23	269 to 271
CC(C)C(S)C(=O)NC1(C(=O)NC(Cc2ccc(-c3ccsc3)nc2)C(=O)O)CCCC1 (stereo not drawn)	215 to 217
CS(=O)(=O)OCCN(CCI)c1c(C(=O)NCCOP(=O)(O)O)cc([N+](=O)[O-])cc1[N+](=O)[O-]	147 to 150
CCCCc1oc2ccccc2c1C(=O)Nc1ccc2cc(OCc3nn[nH]n3)ccc2c1	194 to 198
CNc1cc(F)ccc1C(=O)CS(=O)(=O)N(C)C	120 to 124
N=C(N)Nc1nc(CSCCNC=NS(=O)(=O)c2ccc(Br)cc2)cs1	142 to 146
Cn1ncc2c(=O)n3c(nc21)SCC3(C)C	188
COC(=O)[C@H]1CC[C@@H](c2c(-c3ccccc3)n(C)c3ccccc32)CC1	141 to 142
C=CCc1cc(C)c2c(c1O)C(=O)CC2	41 to 45
N#Cc1c(N)ncc2c1-c1ccccc1C(c1ccc(Cl)cc1Cl)C2 (stereo not drawn)	282 to 284
Cc1c(N2CCC(N)C(C)(C)C2)c(F)cc2c(=O)c(C(=O)O)cn(C3CC3)c12 (stereo not drawn)	195 to 198
CC(=O)Nc1cc(F)ccc1C(=O)NCCN1CCC(O)(c2ccc(Cl)cc2)CC1	175
CC(C)=CCCC(C)C1CCC2C3CC=C4CC(O)CC(O)C4(C)C3CCC12C (stereo not drawn)	137 to 139
COc1cc(CCCn2cncn2)ccc1O	97 to 98
Cc1nc(NN)nnc1-c1ccccc1	136 to 138
Fc1ccccc1-c1nnc(-c2ccccc2C(F)(F)F)o1	68 to 69
